Measured values from patent US20210198277A1, “AMINE-SUBSTITUTED ARYL OR HETEROARYL COMPOUNDS” (Epizyme, Inc., priority 2016, published 2021).

What follows are compounds tested against T1, EHMT2 (Homo sapiens, UniProt Q96KQ7) (assay: MDA-MB-231 H3K9me2 in-cell Western assay (EHMT2 ICW)). Settings: Table II; MDA-MB-231 H3K9me2 in-cell Western; read-out: EHMT2 ICW (IC50 μM).
T1 construct: host or cells: MDA-MB-231
T1 sequence (Q96KQ7 1-1210): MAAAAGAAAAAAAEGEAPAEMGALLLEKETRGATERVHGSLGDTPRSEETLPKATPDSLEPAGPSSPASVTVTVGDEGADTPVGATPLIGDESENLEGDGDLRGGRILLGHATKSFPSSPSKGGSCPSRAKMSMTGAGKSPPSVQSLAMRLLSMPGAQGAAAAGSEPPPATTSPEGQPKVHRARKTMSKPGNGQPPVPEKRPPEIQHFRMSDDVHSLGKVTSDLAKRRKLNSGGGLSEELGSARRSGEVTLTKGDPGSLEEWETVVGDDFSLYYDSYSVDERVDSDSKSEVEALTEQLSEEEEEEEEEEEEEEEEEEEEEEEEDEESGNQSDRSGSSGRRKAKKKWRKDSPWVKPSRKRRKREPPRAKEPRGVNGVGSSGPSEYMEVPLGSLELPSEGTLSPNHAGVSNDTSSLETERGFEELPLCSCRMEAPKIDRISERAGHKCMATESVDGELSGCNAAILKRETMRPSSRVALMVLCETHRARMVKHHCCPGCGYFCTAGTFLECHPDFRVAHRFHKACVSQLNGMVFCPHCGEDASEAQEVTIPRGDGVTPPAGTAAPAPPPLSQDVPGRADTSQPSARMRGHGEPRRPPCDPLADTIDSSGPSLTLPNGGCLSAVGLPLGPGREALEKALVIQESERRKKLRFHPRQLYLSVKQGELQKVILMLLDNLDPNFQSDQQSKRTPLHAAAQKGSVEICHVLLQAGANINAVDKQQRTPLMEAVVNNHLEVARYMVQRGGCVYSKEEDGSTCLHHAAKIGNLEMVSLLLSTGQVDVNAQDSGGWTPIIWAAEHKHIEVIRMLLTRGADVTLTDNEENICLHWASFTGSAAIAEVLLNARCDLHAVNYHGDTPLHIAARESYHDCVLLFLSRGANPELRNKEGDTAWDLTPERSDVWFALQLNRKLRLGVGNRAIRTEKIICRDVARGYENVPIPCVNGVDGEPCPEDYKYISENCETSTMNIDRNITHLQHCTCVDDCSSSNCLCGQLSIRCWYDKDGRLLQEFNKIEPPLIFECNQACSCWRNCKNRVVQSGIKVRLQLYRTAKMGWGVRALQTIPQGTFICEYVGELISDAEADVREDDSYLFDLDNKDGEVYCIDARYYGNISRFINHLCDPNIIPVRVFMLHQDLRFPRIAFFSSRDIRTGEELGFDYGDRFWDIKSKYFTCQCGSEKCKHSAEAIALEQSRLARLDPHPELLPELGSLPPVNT
Type: cell-based
Method in brief: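 MDA-MB-231 cells (3,000/well) were exposed to compound for 30 min at room temperature and then 48 h at 37 °C, fixed with paraformaldehyde, and stained with anti-H3K9me2 (800 nm) plus DRAQ5 (700 nm). Per-well channel ratios gave percent inhibition, and IC50 came from a four-parameter fit of triplicate wells.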

SMILES | IC50
CNc1nc(Nc2ccc(OC)c(OCCCN3CCCC3)c2)ncc1C(F)(F)F [Compound 234] | > 10 µM
CNc1ncc(C(F)(F)F)c(Nc2ccc(OC)c(OCCCN3CCCC3)c2)n1 [Compound 235] | > 10 µM
COc1ccc(Nc2nccc(CNC3CCOCC3)n2)cc1OCCCNc1ccccc1 [Compound 241] | > 10 µM
COc1ccc(Nc2nccc(NCC3CCOCC3)n2)cc1OC1CC2(C1)CN(C)C2 [Compound 243] | > 10 µM
CNc1ccnc(Nc2ccc(F)c(OCCCN3CCCC3)c2)n1 [Compound 244] | > 10 µM
COc1ccc(Nc2nccc(N)n2)cc1OCCCN1CCCC1 [Compound 245] | 1 to 10 µM
CNc1cnnc(Nc2ccc(OC)c(OCCCN3CCCC3)c2)c1 [Compound 246] | > 10 µM
CNc1cncc(Nc2ccc(OC)c(OCCCN3CCCC3)c2)n1 [Compound 247] | 1 to 10 µM
CNc1cc(Nc2cc(OCCCN3CCCC3)c(OC)cn2)ccn1 [Compound 248] | 0.1 to 1 µM
COc1ccc(Nc2ccnc3[nH]ccc23)cc1OCCCN1CCCC1 [Compound 250] | > 10 µM
CC(C)Nc1ccnc(Nc2cccc(OCCCN3CC[C@@H](F)C3)c2)n1 [Compound 251] | > 10 µM
CNc1ccnc(Nc2cccc(OC[C@@H](O)CN3CCCC3)c2)n1 [Compound 253] | > 10 µM

Further lines, results first:

IC50 | SMILES
0.1 to 1 µM | CNc1nc(Nc2ccc(OC)c(OCCCN3CCCC3)c2)nc(C)c1F [Compound 236]
> 10 µM | CNc1ccnc(Nc2ccc(OC)c(OCCN3CCOCC3)c2)n1 [Compound 237]
> 10 µM | CNc1ccnc(Nc2ccc3c(c2)N(C(=O)CCN(C)C)CC3)n1 [Compound 239]
0.1 to 1 µM | CCc1cc(NC)nc(Nc2ccc(OC)c(OCCCN3CCCC3)c2)n1 [Compound 240]
> 10 µM | COc1ccc(Nc2cnnc(NCC3CCN(C(C)=O)CC3)c2)cc1OCCCN1CCCC1 [Compound 242]
> 10 µM | COc1ccc(Nc2nccc3[nH]ncc23)cc1OCCCN1CCCC1 [Compound 249]
1 to 10 µM | CNc1ccnc(Nc2cccc(OC[C@H](O)CN3CCCC3)c2)n1 [Compound 252]
